Converted amounts (≈) assume the structure as drawn.
How the values were obtained:
Hepatitis C virus [1] = experiment: Resistant ratio of EC50 for wild type HCV1b to EC50 for HCV1b harboring NS5A L31M and Y93H mutant infected in human HuH7 cells; type: functional, Hepacivirus hominis, genotype 1b, Huh-7
Hepatitis C virus [2] = experiment: Resistant ratio of EC50 for wild type HCV1b to EC50 for HCV1b harboring NS5A L31V and Y93H mutant infected in human HuH7 cells; type: functional, Hepacivirus hominis, genotype 1b, Huh-7
[3] = AUC in monkey at 2.5 mg/kg, po; type: ADME, organism-based, Macaca mulatta; design: dose 2.5 mg/kg, route oral; details: rhesus monkey, plasma
[4] = Tmax in monkey at 2.5 mg/kg, po; type: ADME, organism-based, Macaca mulatta; design: dose 2.5 mg/kg, route oral; details: rhesus monkey, in vivo
[5] = Half life in monkey at 2.5 mg/kg, po; type: ADME, organism-based, Macaca mulatta; design: dose 2.5 mg/kg, route oral; details: rhesus monkey, in vivo
Hepatitis C virus [6] = experiment: Resistant ratio of EC50 for wild type HCV1b to EC50 for HCV1b harboring NS5A L31F mutant infected in human HuH7 cells; type: functional, Hepacivirus hominis, genotype 1b, Huh-7
Hepatitis C virus [7] = experiment: Antiviral activity against HCV1a harboring NS5A Y93N mutant infected in human HuH7 cells assessed as inhibition of viral replication after 4 days by luciferase reporter gene assay; type: functional, Hepacivirus hominis, subtype 1a, Huh-7
Hepatitis C virus [8] = experiment: Antiviral activity against HCV1b harboring NS5A L31V and Y93H mutant infected in human HuH7 cells assessed as inhibition of viral replication after 4 days by luciferase reporter gene assay; type: functional, Hepacivirus hominis, genotype 1b, Huh-7
[9] = Tmax in dog at 2.5 mg/kg, po; type: ADME, organism-based, Canis lupus familiaris; design: dose 2.5 mg/kg, route oral; details: in vivo
Hepatitis C virus [10] = experiment: Antiviral activity in HCV1 infected in human assessed as log reduction of viral RNA at 5 to 200 mg qd for 3 days relative to control; type: functional, Hepacivirus hominis, genotype 1
[11] = Volume of distribution at steady state in rat at 3 mg/kg, iv; type: ADME, organism-based; design: dose 3 mg/kg, route intravenous; details: in vivo, read-out: Vdss
Hepatitis C virus [12] = experiment: Resistant ratio of EC50 for wild type HCV1a to EC50 for HCV1a harboring NS5A Q30R mutant infected in human HuH7 cells; type: functional, Hepacivirus hominis, subtype 1a, Huh-7
[13] = Oral bioavailability in monkey at 2.5 mg/kg; type: ADME, organism-based, Macaca mulatta; details: rhesus monkey, in vivo
Hepatitis C virus [14] = experiment: Antiviral activity against HCV1b harboring NS5A Y93H mutant infected in human HuH7 cells assessed as inhibition of viral replication after 4 days by luciferase reporter gene assay; type: functional, Hepacivirus hominis, genotype 1b, Huh-7
[15] = Clearance in monkey at 1 mg/kg, iv; type: ADME, organism-based, Macaca mulatta; design: dose 1 mg/kg, route intravenous; details: rhesus monkey, in vivo
Hepatitis C virus [16] = experiment: Ratio of EC50 for HCV1b Con1 infected in human HuH7 cells in presence of 40% human plasma to EC50 for HCV1b Con1 infected in human HuH7 cells in absence of 40% human plasma; type: functional, Hepacivirus hominis, isolate Con1, Huh-7
Hepatitis C virus [17] = experiment: Antiviral activity against HCV1a H77 infected in human HuH7 cells assessed as inhibition of viral replication after 4 days by luciferase reporter gene assay in presence of 40% human plasma; type: functional, organism-based, Hepacivirus hominis; details: genotype 1a H77, Huh-7, Plasma, 96 h
Hepatitis C virus [18] = experiment: Antiviral activity against HCV1a harboring NS5A Y93H mutant infected in human HuH7 cells assessed as inhibition of viral replication after 4 days by luciferase reporter gene assay; type: functional, Hepacivirus hominis, subtype 1a, Huh-7
Homo sapiens = organism: Homo sapiens; experiment: Toxicity in HCV1 infected patient assessed as laboratory abnormalities at 5 to 200 mg qd for 3 days; type: organism-based; details: in vivo, 72 h
[19] = Half life in dog at 2.5 mg/kg, po; type: ADME, organism-based, Canis lupus familiaris; design: dose 2.5 mg/kg, route oral; details: in vivo
[20] = Tmax in rat at 3 mg/kg, po; type: ADME, organism-based; design: dose 3 mg/kg, route oral; details: in vivo
[21] = Oral bioavailability in dog at 2.5 mg/kg; type: ADME, organism-based, Canis lupus familiaris; details: in vivo
[22] = Cmax in monkey at 2.5 mg/kg, po; type: ADME, organism-based, Macaca mulatta; design: dose 2.5 mg/kg, route oral; details: rhesus monkey, in vivo
[23] = Volume of distribution at steady state in monkey at 1 mg/kg, iv; type: ADME, organism-based, Macaca mulatta; design: dose 1 mg/kg, route intravenous; details: rhesus monkey, in vivo, read-out: Vdss
Hepatitis C virus [24] = experiment: Antiviral activity against HCV1a harboring NS5A Y93C mutant infected in human HuH7 cells assessed as inhibition of viral replication after 4 days by luciferase reporter gene assay; type: functional, Hepacivirus hominis, subtype 1a, Huh-7
Hepatitis C virus [25] = experiment: Resistant ratio of EC50 for wild type HCV1b to EC50 for HCV1b harboring NS5A L31V mutant infected in human HuH7 cells; type: functional, Hepacivirus hominis, genotype 1b, Huh-7
[26] = Cmax in rat at 3 mg/kg, po; type: ADME, organism-based; design: dose 3 mg/kg, route oral; details: in vivo
Hepatitis C virus [27] = experiment: Resistant ratio of EC50 for wild type HCV1b to EC50 for HCV1b harboring NS5A R30Q and Y93H mutant infected in human HuH7 cells; type: functional, Hepacivirus hominis, genotype 1b, Huh-7
Hepatitis C virus [28] = experiment: Antiviral activity against HCV1b harboring NS5A L31F and Y93H mutant infected in human HuH7 cells assessed as inhibition of viral replication after 4 days by luciferase reporter gene assay; type: functional, Hepacivirus hominis, genotype 1b, Huh-7
Hepatitis C virus [29] = experiment: Antiviral activity against HCV1a harboring NS5A M28V mutant infected in human HuH7 cells assessed as inhibition of viral replication after 4 days by luciferase reporter gene assay; type: functional, Hepacivirus hominis, subtype 1a, Huh-7
Hepatitis C virus [30] = experiment: Antiviral activity against HCV1b harboring NS5A L28T mutant infected in human HuH7 cells assessed as inhibition of viral replication after 4 days by luciferase reporter gene assay; type: functional, Hepacivirus hominis, genotype 1b, Huh-7
[31] = Half life in monkey at 1 mg/kg, iv; type: ADME, organism-based, Macaca mulatta; design: dose 1 mg/kg, route intravenous; details: rhesus monkey, in vivo
Hepatitis C virus [32] = experiment: Antiviral activity against HCV2b infected in human HuH7 cells assessed as inhibition of viral replication after 4 days by luciferase reporter gene assay; type: functional, organism-based, Hepacivirus hominis; details: genotype 2b, Huh-7, 96 h
Hepatitis C virus [33] = experiment: Antiviral activity against HCV1a harboring NS5A M28T mutant infected in human HuH7 cells assessed as inhibition of viral replication after 4 days by luciferase reporter gene assay; type: functional, Hepacivirus hominis, subtype 1a, Huh-7
[34] = Half life in rat at 3 mg/kg, po; type: ADME, organism-based; design: dose 3 mg/kg, route oral; details: in vivo
[35] = Cmax in HCV1 infected patient at 5 to 200 mg qd for 3 days; type: ADME, organism-based; details: human, in vivo
Hepatitis C virus [36] = experiment: Antiviral activity against HCV5a infected in human HuH7 cells assessed as inhibition of viral replication after 4 days by luciferase reporter gene assay; type: functional, organism-based, Hepacivirus hominis; details: genotype 5a, Huh-7, 96 h
Hepatitis C virus [37] = experiment: Antiviral activity against HCV1b harboring NS5A L28M and Y93H mutant infected in human HuH7 cells assessed as inhibition of viral replication after 4 days by luciferase reporter gene assay; type: functional, Hepacivirus hominis, genotype 1b, Huh-7
Hepatitis C virus [38] = experiment: Antiviral activity against HCV3a infected in human HuH7 cells assessed as inhibition of viral replication after 4 days by luciferase reporter gene assay; type: functional, organism-based, Hepacivirus hominis; details: genotype 3a, Huh-7, 96 h
Hepatitis C virus [39] = experiment: Resistant ratio of EC50 for wild type HCV1a to EC50 for HCV1a harboring NS5A Y93C mutant infected in human HuH7 cells; type: functional, Hepacivirus hominis, subtype 1a, Huh-7
Hepatitis C virus [40] = experiment: Antiviral activity against HCV4a infected in human HuH7 cells assessed as inhibition of viral replication after 4 days by luciferase reporter gene assay; type: functional, organism-based, Hepacivirus hominis; details: genotype 4a, Huh-7, 96 h
Hepatitis C virus [41] = experiment: Resistant ratio of EC50 for wild type HCV1b to EC50 for HCV1b harboring NS5A L31F and Y93H mutant infected in human HuH7 cells; type: functional, Hepacivirus hominis, genotype 1b, Huh-7
[42] = Kinetic solubility of the compound in 10 mM of phosphate buffer at pH 7.2 by CLND method; type: physicochemical; details: read-out: Kinetic_solubility
[43] = AUC in rat at 3 mg/kg, po; type: ADME, organism-based; design: dose 3 mg/kg, route oral; details: plasma
[44] = Half life in HCV1 infected patient at 5 to 200 mg qd for 3 days; type: ADME, organism-based; details: human, in vivo
Hepatitis C virus [45] = experiment: Antiviral activity against HCV1a harboring NS5A Q30R mutant infected in human HuH7 cells assessed as inhibition of viral replication after 4 days by luciferase reporter gene assay; type: functional, Hepacivirus hominis, subtype 1a, Huh-7

SMILES: COC(=O)N[C@H](C(=O)N1CCC[C@H]1C(=O)Nc1ccc([C@@H]2CC[C@@H](c3ccc(NC(=O)[C@@H]4CCCN4C(=O)[C@@H](NC(=O)OC)C(C)C)cc3)N2c2ccc(C(C)(C)C)cc2)cc1)C(C)C [OMBITASVIR]
- Ratio EC50 (Hepatitis C virus [1]): 142
- Ratio EC50 (Hepatitis C virus [2]): 12323
- AUC [3]: 2400 ng·h/mL
- Tmax [4]: 3.3 h
- half-life [5]: 5 h
- Ratio EC50 (Hepatitis C virus [6]): 10
- Efficacy (Hepatitis C virus [7]): 25%
- Efficacy (Hepatitis C virus [8]): 24%
- Tmax [9]: 3.3 h
- Activity (Hepatitis C virus [10]): <=3.1 log10IU/ml
- Vd [11]: 5.9 L/kg
- Ratio EC50 (Hepatitis C virus [12]): 800
- bioavailability [13]: 35%
- Efficacy (Hepatitis C virus [14]): 73%
- clearance [15]: 6.33 mL/min/kg
- Ratio EC50 (Hepatitis C virus [16]): 11
- EC50 (Hepatitis C virus [17]): 186 pM
- Efficacy (Hepatitis C virus [18]): 18%
- Activity (Homo sapiens): Non-toxic
- half-life [19]: 7.3 h
- Tmax [20]: 3.7 h
- bioavailability [21]: 57%
- Cmax [22]: 290 ng/mL
- Vd [23]: 1.5 L/kg
- Efficacy (Hepatitis C virus [24]): 24%
- Ratio EC50 (Hepatitis C virus [25]): 8
- Cmax [26]: 10 ng/mL
- Ratio EC50 (Hepatitis C virus [27]): 284
- Efficacy (Hepatitis C virus [28]): 35%
- Efficacy (Hepatitis C virus [29]): 87%
- Efficacy (Hepatitis C virus [30]): 17%
- half-life [31]: 4.4 h
- EC50 (Hepatitis C virus [32]): 4.3 pM
- Efficacy (Hepatitis C virus [33]): 100%
- half-life [34]: 15.9 h
- Cmax [35]: 5.7 ng/mL
- EC50 (Hepatitis C virus [36]): 4.3 pM
- Efficacy (Hepatitis C virus [37]): 104%
- EC50 (Hepatitis C virus [38]): 19.3 pM
- Ratio EC50 (Hepatitis C virus [39]): 1675
- EC50 (Hepatitis C virus [40]): 1.71 pM
- Ratio EC50 (Hepatitis C virus [41]): 10270
- solubility kinetic [42]: 2.7 µM (≈ 2.41 µg/mL)
- AUC [43]: 290 ng·h/mL
- half-life [44]: 25 h
- Efficacy (Hepatitis C virus [45]): 60%
